Data reported in ChEMBL document CHEMBL3351581, “Synthesis of prenylated quinolinecarboxylic acid derivatives and their anti-obesity activities” (Bioorg Med Chem, 2015).
Activity calls are given as the source filed them. The calls are words filed in the database; no cut-off is given here.

Assays:
[1] = test system: Liver; assay: Increase in oxygen consumption rate of mitochondrial state 4 respiration in ICR mouse liver fraction at 20 uM by Clark-type oxygen electrode assay; type: functional
[2] = test system: Liver; assay: Toxicity in ICR mouse liver fraction assessed as ROS production at 1 to 20 uM by Clark-type oxygen electrode assay; type: tissue-based
[3] = test system: Liver; assay: Increase in oxygen consumption rate of mitochondrial state 3 respiration in ICR mouse liver fraction at 20 uM by Clark-type oxygen electrode assay; type: functional
[4] = test system: Liver; assay: Increase in oxygen consumption rate of mitochondrial state 4 respiration in ICR mouse liver fraction at 10 uM by Clark-type oxygen electrode assay; type: functional
[5] = test system: Mus musculus; assay: Toxicity in ICR mouse assessed as lesions in kidney at 0.4 to 0.8 mg/kg/week, ip for 6 weeks measured after 6 weeks relative to control; type: organism-based; design: route intraperitoneal; conditions: in vivo, 1008 h
[6] = test system: Mus musculus; assay: Antiobesity activity in ICR mouse assessed as body weight reduction at 0.4 to 0.8 mg/kg/week, ip for 6 weeks measured after 6 weeks relative to control; type: functional; design: scale not given: the % may be the effect or the level left; conditions: route intraperitoneal
[7] = test system: Mus musculus; assay: Toxicity in ICR mouse assessed as lesions in liver at 0.4 to 0.8 mg/kg/week, ip for 6 weeks measured after 6 weeks relative to control; type: organism-based; design: route intraperitoneal; conditions: in vivo, 1008 h

Row | Structure (SMILES) | Activity [1] | also measured
1 | COc1cc(C(=O)OCCC(C)C)nc2c(OCC=C(C)C)cccc12 | inactive | 
2 | COc1cc(C(=O)OCC=C(C)C)nc2c(OC)cccc12 | inactive | 
3 | COc1cc(C(=O)OCC=C(C)C)nc2c(OC/C=C(\C)CCC=C(C)C)cccc12 | inactive | 
4 | COc1cc(C(=O)NCC=C(C)C)nc2c(OCC=C(C)C)cccc12 | inactive | 
5 | COc1cc(C(=O)OCC=C(C)C)nc2c(OCC=C(C)C)cccc12 | Active | Activity [2]: Non-toxic; Activity [3]: inactive
6 | COc1cc(C(=O)OC/C=C(\C)CCC=C(C)C)nc2c(OCC=C(C)C)cccc12 | inactive | 
7 | CCCCCOc1cc(C(=O)OCC=C(C)C)nc2c(OCC=C(C)C)cccc12 | Active | 
8 | CC(C)=CCOC(=O)c1cc(OCC=C(C)C)c2cccc(OCC=C(C)C)c2n1 | Active | Activity [4]: Active; Activity [5]: Non-toxic; Activity [6]: 6%; Activity [2]: Non-toxic; Activity [3]: inactive; Activity [7]: Non-toxic
9 | COc1cc(C(=O)OCC=C(C)C)nc2c(OC3CCCC3)cccc12 | inactive | 
10 | COc1cc(C(=O)OC2CCCC2)nc2c(OCC=C(C)C)cccc12 | inactive | 
11 | COC(=O)c1cc(OC)c2cccc(OCC=C(C)C)c2n1 | inactive | 
12 | COc1cc(C(=O)OCC=C(C)C)nc2c(OCCC(C)C)cccc12 | inactive | 
